Laboratory results taken from US6936602B1, “Benzazepine derivatives, process for the preparation of the same and uses thereof” (Takeda Chemical Industries, Ltd., priority 1999, dated 2005).

How the values were obtained:
HIV-1 BA-L = test: Inhibitory effect on HIV-1 infection to MAGI-CCR5 cell (β-galactosidase blue cell count); type: cell-based; conditions: 100 μl medium containing 1.6 μM of Test Compound + 100 μl medium containing 300 PFU of HIV-1 BA-L; MAGI-CCR5 cells; 37° C. for 2 days
Experimental: (5) Inhibitory Effect on HIV-1 Infection to MAGI-CCR5 Cell
The plasmid where β-galactosidase gene was ligated downstream of HIV-1 LTR was introduced into CD4 positive HeLa cell, to which human CCR5 was further introduced to obtain transformant MAGI-CCR5.
By using said transformant MAGI-CCR5, a degree of HIV-1 infection was calculated using β-galactosidase activity (blue color due to decomposition of 5-bromo-4-chloro-3-indolyl-β-D-galactopyranoside) as an index. Specifically, MAGI-CCR5 cells were suspended in DMEM medium containing 10% serum to prepare 5×10^4 cells/ml suspension. To each well of 96 well plate was inoculated 200 μl of the suspension, and the cells were cultivated at 37° C. overnight. The medium was removed by means of suction, and to the residue was added 100 μl of the above medium containing 1.6 μM of Test Compound and 100 μl of the above medium containing 300 PFU of HIV-1 BA-L cells. The cells were cultivated at 37° C. for 2 days. The medium was removed by means of suction. To the residue was added 200 μl of a cell fixative (PBS containing 1% formaldehyde and 0.2% glutaraldehyde), and the mixture was allowed to stand at room temperature for 5 minutes and washed twice with PBS. To the mixture was added 100 μl of staining solution (PBS containing […] and 0.4 mg/ml X-gal), and the mixture was allowed to stand at 37° C. for 50 minutes and washed twice with PBS. The number of blue cells was counted by a microscope and defined as the number of cells infected with HIV-1. According to this method, inhibition rate of HIV-1 infection was determined.

human CCR5 = target: T1, human CCR5 (Homo sapiens, UniProt P51681); test: Evaluation of test compounds based on CCR5 antagonistic activity: inhibition of [125I]-RANTES binding to CCR5/CHO cells; conditions: Test Compound 1 μM, 100 pM [125I]-RANTES, room temperature for 40 minutes, read-out: Inhibitory Rate (%)
T1 construct: expressed in transfected cells
Experimental: Cloning of CCR5 gene was carried out by a PCR method from human spleen cDNA. With using 0.5 ng of spleen cDNA (Toyobo, QUICK-Clone cDNA) as template, PCR was performed in DNA Thermal Cycler 480 (Perkin-Elmer) (reaction conditions: 30 cycles of 95° C. for 1 minute, 60° C. for 1 minute, and 75° C. for 5 minutes) by adding each 25 pmol of primers of a primer set, • SEQ ID NO.: 1 described in Test Example (1) of WO 99/32100 [length of sequence: 34; type of sequence: nucleic acid; strandedness: single; topology: straight; kind of sequence: other nucleic acid synthetic DNA, and • SEQ ID NO.: 2 described in Test Example (1) of WO 99/32100 [length of sequence: 34; type of sequence: nucleic acid; strandedness: single; topology: straight; kind of sequence: other nucleic acid synthetic DNA which were designed referring to nucleotide sequence of CCR5 gene reported by Samson et. al. (Biochemistry, 35(11), 3362-3367 (1996)) and by using TaKaRa EX Taq (Takara Shuzo). The resultant PCR product was subjected to agarose gel electrophoresis to collect about 1.0 kb DNA fragment, which was subjected to Original TA Cloning Kit (Funakoshi) to carry out cloning of CCR5 gene. (2) Preparation of Plasmid for Expression of Human CCR5
The plasmid obtained in the above (1) was digested with restriction enzymes XbaI (Takara Shuzo) and BamHI (Takara Shuzo) and subjected to agarose gel electrophoresis to collect about 1.0 kb DNA fragment.
The DNA fragment was mixed with plasmid pcDNA3.1 (Funakoshi) for expression in animal cells, said plasmid being digested with XbaI and BamHI, and they were ligated with DNA Ligation Kit Ver.2 (Takara Shuzo). The resulting plasmid was subjected to transformation of competent cell of E. coli JM109 (Takara Shuzo) to obtain plasmid pCKR5.
CHO-K1 cells were grown in 750 ml of tissue culture flask (Becton Dickinson) using Ham's F12 medium (Nihon Pharmaceutical) containing 10% fetal calf serum (Life Tech Oriental) and taken off with 0.5 g/L trypsin-0.2 g/L EDTA (Life Tech Oriental). The cells were washed with PBS (Life Tech Oriental), centrifuged (1000 rpm, 5 minutes), and suspended in PBS. With using Gene Pulser (Bio-Rad Laboratories), DNA was introduced into the cells under the conditions shown below. That is, to the cuvette of 0.4 cm gap were added 8×10^6 cells and 10 μg of plasmid pCKR5 for expression of human CCR5, and electroporation was carried out under 0.25 kV of voltage and 960 μF of capacitance. The cells were transferred into Ham's F12 medium containing 10% fetal calf serum, and cultivated for 24 hours. The cells were again taken off and centrifuged, and suspended in Ham's F12 medium containing 10% fetal calf serum and 500 μg/ml of geneticin (Life Tech Oriental). The suspension was diluted to give 10^4 cells/ml of the suspension, which was inoculated on a 96 well plate (Becton Dickinson) to give geneticin resistant cells.
The resulting geneticin resistant cells were cultivated in 96 well plate (Becton Dickinson), and cells expressing CCR5 were selected from the geneticin resistant cells. That is, in assay buffer (Ham's F12 medium containing 0.5% BSA and 20 mM HEPES (Wako Pure Chemical, pH7.2)) to which was added 200 pM of [^125I]-RANTES (Amersham) as a ligand, a binding reaction was carried out at room temperature for 46 minutes, and the buffer was washed with cooled PBS. To the buffer was added 50 μl/well of 1M NaOH, and the mixture was stirred. Radioactivity was determined with a y-counter to select CCR5/CHO cells which specifically bind to the ligand.
The CCR5/CHO cells were inoculated on 96 well microplate (5×10^4 cells/well) and cultivated for 24 hours. The medium was removed by means of suction, and to each well was added an assay buffer containing Test Compound (1 μM) and then 100 pM of [^125I]-RANTES (Amersham) as a ligand. A binding assay was carried out at room temperature for 40 minutes, and an assay buffer was removed by means of suction. […]

T1 sequence (P51681 whole entry): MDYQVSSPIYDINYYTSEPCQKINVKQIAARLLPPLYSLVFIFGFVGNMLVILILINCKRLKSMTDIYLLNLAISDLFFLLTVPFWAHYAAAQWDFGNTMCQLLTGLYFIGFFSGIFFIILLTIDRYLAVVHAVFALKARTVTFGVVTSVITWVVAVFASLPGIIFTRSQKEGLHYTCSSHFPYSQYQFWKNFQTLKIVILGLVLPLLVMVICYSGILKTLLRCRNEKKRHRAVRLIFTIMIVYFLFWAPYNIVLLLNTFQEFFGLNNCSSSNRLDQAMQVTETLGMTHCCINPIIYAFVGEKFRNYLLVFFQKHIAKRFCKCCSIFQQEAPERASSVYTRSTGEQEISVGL

Structure (SMILES) | Inhibitation Rate (%) (HIV-1 BA-L) | inhibition at 1 µM (human CCR5) [%] | melting point [°C]
CCOCCOc1ccc(-c2ccc3c(c2)C=C(C(=O)Nc2ccc(CN(C)C4CCOCC4)cc2)CCN3CC)cc1 [Compound 16, 7-[4-(2-ethoxyethoxy)phenyl]-1-ethyl-N-[4-[[N-methyl-N-(tetrahydro-2H-pyran-4-yl)amino]methyl]phenyl]-2,3-dihydro-1H-1-benzazepine-4-carboxamide] | 94 | 96 | 114.5 to 116.5
CCCOCCOc1ccc(-c2ccc3c(c2)C=C(C(=O)Nc2ccc(CN(C)C4CCOCC4)cc2)CCN3CC)cc1 [Compound 17, 1-ethyl-N-[4-[[N-methyl-N-(tetrahydro-2H-pyran-4-yl)amino]methyl]phenyl]-7-[4-(2-propoxyethoxy)phenyl)-2,3-dihydro-1H-1-benzazepine-4-carboxamide] | 94 | 99 | 106 to 108
CC(C)OCCOc1ccc(-c2ccc3c(c2)C=C(C(=O)Nc2ccc(CN(C)C4CCOCC4)cc2)CCN3C=O)cc1 [Compound 14, 1-formyl-N-[4-[[N-methyl-N-(tetrahydro-2H-pyran-4-yl)amino]methyl]phenyl]-7-[4-(2-propoxy)ethoxyphenyl]-2,3-dihydro-1H-1-benzazepine-4-carboxamide] | 91 | 96 | 187 to 189
CCOCCOc1ccc(-c2ccc3c(c2)C=C(C(=O)Nc2ccc(CN(C)C4CCOCC4)cc2)CCN3C=O)cc1 [Compound 1, 7-[4-(2-ethoxyethoxy)phenyl]-1-formyl-N-[4-[[N-methyl-N-(tetrahydro-2H-pyran-4-yl)amino]methyl]phenyl]-2,3-dihydro-1H-1-benzazepine-4-carboxamide] | 85 | 93 | 192 to 194
